# Reference: patent US20080139536A1, “Benzodiazepines for Treating or Preventing Rsv Infection” (Novartis Pharmaceuticals Corporation, priority 2004, published 2008)
# What was measured:
# RSV (RSS strain) = assay: RSV ELISA antigen reduction assay in Hep-2 cells; assay type: cell-based, Respiratory Syncytial Virus; conditions: RSV-infected Hep-2 cells, 3 day assay, ELISA OD 490 nm, 7-point dilution 50 μM-0.78 μM
# Description: This was quantified by optical density (OD) measurement.
# This assay was set up using all 96 wells of flat-bottomed 96-well plates. The outer wells were not subjected to any greater amount of evaporation than the inner wells during the 3 day assay period. (i.e. No “edge effect” seen).
# Plates were set up one day before addition of virus and compounds. The assay then ran for 3 days with ELISA development taking place on the 4th day.
# (§1) All 96 wells of a microtitre plate were seeded at a density of 4×10^3 Hep-2 cells/well in 100 μl/well of Growth Medium (GM) consisting of Dulbecco's MEM (DMEM) with Glutamax-1, Sodium Pyruvate, 1000 mg/l glucose and pyridoxine (Invitrogen, catalogue number 21885-025) and supplemented with 10% FBS. (See Plate 1).
# A frozen vial of RSV (RSS strain provided by Virogen Ltd) stock solution was removed from the −80 freezer or liquid nitrogen store and diluted to a known Multiplicity of Infection (m.o.i) in Growth Medium.
# The m.o.i. was calculated by prior titration of the virus stock (by the ELISA assay method) as the virus input required to achieve a window of at least 0.8 OD units between infected and uninfected control wells.
# 50 μl of diluted virus was added to infected, “virus+”, wells by multichannel pipette; 50 μl of Growth Medium was added to uninfected, cell control wells (CC) by multichannel pipette. (See Plate 2)
# Plates were incubated at 37° C. for 1 hr to allow virus adsorption.
# Compounds were made up at 4× strength in GM containing 2% DMSO (a final DMSO concentration in the assay of 0.5%).
# (§2) Six compounds were tested on each assay plate as illustrated below. (See Plate 3). Compounds were tested in duplicate wells across a 7-point dilution series (from 50 μM-0.78 μM): in the presence of virus.
# Virus infected, untreated wells served as the virus control (VC); Uninfected, untreated wells serve as the cell control (CC). The difference in absorbance between CC and VC wells constitutes the assay window.
# 200 μl of GM containing 2% DMSO was added to all wells except the ‘50 μM’ or first column, to which 392 μl of GM was added. 8 μl of each test compound was cherry-picked from a thawed Arrow screening plate and transferred to the appropriate well in the ‘50 μM’ column. Since the compound stock was at 10 mM in 100% DMSO, this will maintain the DMSO level at 2% at the top compound concentration.
# Using a multichannel pipette, 200 μl was transferred from the 50 μM column to the 25 μM column, then to the 12.5 μM column and so on across the dilution plate creating a serial doubling dilution. Compounds were mixed upon transfer and tips changed between transfers, ensuring also that no compound was transferred to the last column of compound-free wells (0 μM).
# The dilution plate was turned lengthways and 50 μl of compound easily transferred by multichannel pipette from the dilution plate to the assay plate, column by column. There was therefore an excess of 100 μl remaining in the dilution plate.
# Plates were incubated at 37° C., 5% CO2 for 3 days.
# Media was tapped out from wells directly into Virkon (1% solution in water) and plates were washed by immersing in a plastic box containing PBS. 50 μl/well of 75%/25% vol/vol acetone/methanol fixative was added by multichannel pipette and left for 3 mins.
# Some 200 μl of blocking solution (2% Marvel in PBS containing 0.05% Tween) was added per well by multichannel pipette. Plates were incubated at 37° C. in a shaking incubator for 60 mins.
# RSV mouse monoclonal antibody NCL-RSV3 (Novocastra) was diluted 1/400 in PBS/2% Marvel/0.05% Tween and 50 μl was added per well. Plates were incubated at 37° C. in a shaking incubator for 90 mins.
# DAKo rabbit anti-mouse HRP conjugate (DAKO catalogue number P0260) was diluted 1/1000 in PBS/2% Marvel/0.05% Tween and 50 μl was added per well. Plates were incubated at 37° C. in a shaking incubator for 60 mins.
# Substrate (SigmaFast OPD) was prepared in advance by dissolving 1 urea tablet in 20 mL water. […]
# Hep-2 cells = assay: Cell toxicity: crystal violet staining and microscopic examination of monolayers; assay type: cell-based; conditions: Hep-2 monolayers of the assay plates, crystal violet stain, indications of cell toxicity; compounds tested 50 μM-0.78 μM
# Description: as §1, §2
# The wells were emptied, washed in tap water and the monolayers stained with 50 μl/well of 2% crystal violet in 20% methanol/water for at least 1 hour. The wells were then washed and air-dried and the monolayers examined under the microscope for indications of cell toxicity.
# [1] = human respiratory syncytial virus, 72 h
smiles,measurement,setting,value
"N#Cc1ccc(C(=O)N[C@H]2N=C(c3ccccc3)c3ccccc3NC2=O)c(N2CCCC2)c1 [Example 14, (S)-4-Cyano-N-(2-oxo-5-phenyl-2,3-dihydro-1H-benzo[e][1,4]diazepin-3-yl)-2-pyrrolidin-1-yl-benzamide]",IC50,RSV (RSS strain); [1],< 5 µM
same,TD50,Hep-2 cells,Tr50
"N#Cc1ccc(C(=O)N[C@H]2N=C(c3ccccc3)c3ccccc3NC2=O)c(N2CCCCC2)c1 [Example 15, (S)-4-Cyano-N-(2-oxo-5-phenyl-2,3-dihydro-1H-benzo[e][1,4]diazepin-3-yl)-piperidine-1-yl-benzamide]",IC50,RSV (RSS strain),> 10 µM
same,TD50,Hep-2 cells,Tr25
"O=C(N[C@H]1N=C(c2ccccc2)c2ccccc2NC1=O)c1cccnc1N1CCOCC1 [Example 21, (S)-2-Morpholin-4-yl-N-(2-oxo-5-phenyl-2,3-dihydro-1H-benzo[e][1,4]diazepin-3-yl)-nicotinamide]",IC50,RSV (RSS strain); [1],5 to 10 µM
same,TD50,Hep-2 cells,Tr25
